From PubChem BioAssay (NCI)
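The concentration for 50% growth inhibition is given as GI50. Definition used: TGI = concentration required for complete inhibition of growth.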

Experiments:
Assay in all cases: DTP human tumour cell line panel, 384-well format
NCI-H522 lung = tested on: NCI-H522 lung
RPMI-8226 leukemia = tested on: RPMI-8226 leukemia
NCI-H226 lung = tested on: NCI-H226 lung
PC-3 prostate = tested on: PC-3 prostate
ACHN renal = tested on: ACHN renal
SW-620 colon = tested on: SW-620 colon
SK-OV-3 ovarian = tested on: SK-OV-3 ovarian
UACC-257 melanoma = tested on: UACC-257 melanoma
SF-295 CNS = tested on: SF-295 CNS
MDA-MB-435 melanoma = tested on: MDA-MB-435 melanoma
OVCAR-3 ovarian = tested on: OVCAR-3 ovarian
SK-MEL-5 melanoma = tested on: SK-MEL-5 melanoma
MDA-MB-231 breast = tested on: MDA-MB-231 breast
MALME-3M melanoma = tested on: MALME-3M melanoma
COLO 205 colon = tested on: COLO 205 colon
MDA-MB-468 breast = tested on: MDA-MB-468 breast
SN12C renal = tested on: SN12C renal
LOX IMVI melanoma = tested on: LOX IMVI melanoma
MCF7 breast = tested on: MCF7 breast
786-0 renal = tested on: 786-0 renal
NCI-H460 NSCLC = tested on: NCI-H460 NSCLC
SF-539 CNS = tested on: SF-539 CNS
A498 renal = tested on: A498 renal
HOP-92 NSCLC = tested on: HOP-92 NSCLC
HCC-2998 colon = tested on: HCC-2998 colon
SNB-75 CNS = tested on: SNB-75 CNS
SK-MEL-28 melanoma = tested on: SK-MEL-28 melanoma
UACC-62 melanoma = tested on: UACC-62 melanoma
TK-10 renal = tested on: TK-10 renal
HOP-62 NSCLC = tested on: HOP-62 NSCLC
HL-60(TB) leukemia = tested on: HL-60(TB) leukemia
K-562 leukemia = tested on: K-562 leukemia
MOLT-4 leukemia = tested on: MOLT-4 leukemia
KM12 colon = tested on: KM12 colon
NCI-H23 lung = tested on: NCI-H23 lung
IGROV1 ovarian = tested on: IGROV1 ovarian
HCT-15 colon = tested on: HCT-15 colon
HS 578T breast = tested on: HS 578T breast
RXF 393 renal = tested on: RXF 393 renal
U251 glioblastoma = tested on: U251 glioblastoma
CCRF-CEM leukemia = tested on: CCRF-CEM leukemia
CAKI-1 renal = tested on: CAKI-1 renal
OVCAR-5 ovarian = tested on: OVCAR-5 ovarian
T-47D breast = tested on: T-47D breast
OVCAR-8 ovarian = tested on: OVCAR-8 ovarian
HT29 colon = tested on: HT29 colon
NCI-H322M lung = tested on: NCI-H322M lung
A549 NSCLC = tested on: A549 NSCLC
HCT-116 colon = tested on: HCT-116 colon
OVCAR-4 ovarian = tested on: OVCAR-4 ovarian
M14 melanoma = tested on: M14 melanoma
SF-268 CNS = tested on: SF-268 CNS
DU-145 prostate = tested on: DU-145 prostate
SNB-19 CNS = tested on: SNB-19 CNS
NCI/ADR-RES ovarian = tested on: NCI/ADR-RES ovarian
BT-549 breast = tested on: BT-549 breast
UO-31 renal = tested on: UO-31 renal
EKVX NSCLC = tested on: EKVX NSCLC

## CN1CCN(CCOc2cc(OC3CCOCC3)c3c(Nc4c(Cl)ccc5c4OCO5)ncnc3c2)CC1
NCI-H522 lung
  GI50: 0.179 µM
  TGI: 10.7 µM
RPMI-8226 leukemia
  GI50: 14.4 µM
  TGI: 27.5 µM
NCI-H226 lung
  GI50: 12.5 µM
  TGI: 26.6 µM
PC-3 prostate
  GI50: 14.1 µM
  TGI: 35 µM
ACHN renal
  GI50: 0.317 µM
  TGI: 12.6 µM
SW-620 colon
  GI50: 19.3 µM
  TGI: 33.5 µM
SK-OV-3 ovarian
  GI50: 0.317 µM
  TGI: 13 µM
UACC-257 melanoma
  GI50: 2.53 µM
  TGI: 10.5 µM
SF-295 CNS
  GI50: 11.4 µM
  TGI: 23.5 µM
MDA-MB-435 melanoma
  GI50: 16.2 µM
  TGI: 29.8 µM
OVCAR-3 ovarian
  GI50: 1.14 µM
  TGI: 16.8 µM
SK-MEL-5 melanoma
  GI50: 10.8 µM
  TGI: 22.8 µM
MDA-MB-231 breast
  GI50: 2.83 µM
  TGI: 17.6 µM
MALME-3M melanoma
  GI50: 14.1 µM
  TGI: 27.1 µM
COLO 205 colon
  GI50: 14.9 µM
  TGI: 28.1 µM
MDA-MB-468 breast
  GI50: 0.403 µM
  TGI: 1.95 µM
SN12C renal
  GI50: 0.377 µM
  TGI: 12.8 µM
LOX IMVI melanoma
  GI50: 0.448 µM
  TGI: 7 µM
MCF7 breast
  GI50: 9.74 µM
  TGI: 21.7 µM
786-0 renal
  GI50: 0.943 µM
  TGI: 15.2 µM
NCI-H460 NSCLC
  GI50: 12.7 µM
  TGI: 25.5 µM
SF-539 CNS
  GI50: 10.7 µM
  TGI: 22.6 µM
A498 renal
  GI50: 1.95 µM
  TGI: 12.6 µM
HOP-92 NSCLC
  GI50: 2.33 µM
  TGI: 17.4 µM
HCC-2998 colon
  GI50: 5.25 µM
  TGI: 19 µM
SNB-75 CNS
  GI50: 0.233 µM
  TGI: 0.835 µM
SK-MEL-28 melanoma
  GI50: 14.7 µM
  TGI: 27.9 µM
UACC-62 melanoma
  GI50: 14.1 µM
  TGI: 27.1 µM
TK-10 renal
  GI50: 1.67 µM
  TGI: 5.54 µM
HOP-62 NSCLC
  GI50: 6.29 µM
  TGI: 19.7 µM
HL-60(TB) leukemia
  GI50: 22.3 µM
  TGI: 36.8 µM
K-562 leukemia
  GI50: 0.132 µM
  TGI: 0.306 µM
MOLT-4 leukemia
  GI50: 8.27 µM
  TGI: 21.2 µM
KM12 colon
  GI50: 0.658 µM
  TGI: 14 µM
NCI-H23 lung
  GI50: 5.77 µM
  TGI: 20.9 µM
IGROV1 ovarian
  GI50: 0.0603 µM
  TGI: 0.295 µM
HCT-15 colon
  GI50: 3.68 µM
  TGI: 18.9 µM
HS 578T breast
  GI50: 0.387 µM
  TGI: 4.35 µM
RXF 393 renal
  GI50: 0.215 µM
  TGI: 2.94 µM
U251 glioblastoma
  GI50: 6.67 µM
  TGI: 19.9 µM
CCRF-CEM leukemia
  GI50: 14.3 µM
  TGI: 27.4 µM
CAKI-1 renal
  GI50: 0.514 µM
  TGI: 13.6 µM
OVCAR-5 ovarian
  GI50: 0.679 µM
  TGI: 12 µM
T-47D breast
  GI50: 0.171 µM
  TGI: 3.06 µM
OVCAR-8 ovarian
  GI50: 8.72 µM
  TGI: 21.3 µM
HT29 colon
  GI50: 1.43 µM
  TGI: 8.86 µM
NCI-H322M lung
  GI50: 0.387 µM
  TGI: 10.3 µM
A549 NSCLC
  GI50: 1.45 µM
  TGI: 17.9 µM
HCT-116 colon
  GI50: 10.7 µM
  TGI: 22.5 µM
OVCAR-4 ovarian
  GI50: 13 µM
  TGI: 26.1 µM
M14 melanoma
  GI50: 15.2 µM
  TGI: 28.6 µM
SF-268 CNS
  GI50: 0.55 µM
  TGI: 3.18 µM
DU-145 prostate
  GI50: 5.09 µM
  TGI: 18.7 µM
SNB-19 CNS
  GI50: 9.59 µM
  TGI: 29 µM
NCI/ADR-RES ovarian
  GI50: 10.6 µM
  TGI: 23.8 µM
BT-549 breast
  GI50: 2.77 µM
  TGI: 16.2 µM
UO-31 renal
  GI50: 0.446 µM
  TGI: 15.4 µM
EKVX NSCLC
  GI50: 0.552 µM
  TGI: 11.9 µM

## O=C(Nc1cc(Oc2cc(F)c(NC(=O)C3(C(=O)Nc4ccc(F)cc4)CC3)cc2F)ccn1)C1CC1
NCI-H522 lung
  GI50: 2.06 µM
  TGI: 4.17 µM
RPMI-8226 leukemia
  GI50: 1.93 µM
  TGI: 3.37 µM
NCI-H226 lung
  GI50: 2.21 µM
  TGI: 7.21 µM
PC-3 prostate
  GI50: 3.3 µM
  TGI: 8.13 µM
ACHN renal
  GI50: 1.66 µM
  TGI: 7.31 µM
SW-620 colon
  GI50: 2.38 µM
  TGI: 6.96 µM
SK-OV-3 ovarian
  GI50: 3.12 µM
  TGI: 9.2 µM
UACC-257 melanoma
  GI50: 1.11 µM
  TGI: 2.68 µM
SF-295 CNS
  GI50: 1.2 µM
  TGI: 5.14 µM
MDA-MB-435 melanoma
  GI50: 1.2 µM
  TGI: 2.82 µM
OVCAR-3 ovarian
  GI50: 2.35 µM
  TGI: 6 µM
SK-MEL-5 melanoma
  GI50: 0.512 µM
  TGI: 1.94 µM
MDA-MB-231 breast
  GI50: 0.472 µM
  TGI: 91.7 µM
MALME-3M melanoma
  GI50: 0.249 µM
  TGI: 1.1 µM
COLO 205 colon
  GI50: 0.66 µM
  TGI: 2.87 µM
MDA-MB-468 breast
  GI50: 1.98 µM
  TGI: 3.5 µM
SN12C renal
  GI50: 1.65 µM
  TGI: 4.5 µM
LOX IMVI melanoma
  GI50: 1.25 µM
  TGI: 2.71 µM
MCF7 breast
  GI50: 0.376 µM
  TGI: 2.09 µM
786-0 renal
  GI50: 2 µM
  TGI: 8.41 µM
NCI-H460 NSCLC
  GI50: 1.98 µM
  TGI: 4.31 µM
SF-539 CNS
  GI50: 1.46 µM
  TGI: 2.93 µM
A498 renal
  GI50: 3.02 µM
  TGI: 8.19 µM
HOP-92 NSCLC
  GI50: 2.34 µM
  TGI: > 100 µM
HCC-2998 colon
  GI50: 0.647 µM
  TGI: 4.23 µM
SNB-75 CNS
  GI50: 1.62 µM
  TGI: 3.03 µM
SK-MEL-28 melanoma
  GI50: 1.4 µM
  TGI: 2.78 µM
UACC-62 melanoma
  GI50: 0.394 µM
  TGI: 1.6 µM
TK-10 renal
  GI50: 3.13 µM
  TGI: 20.8 µM
HOP-62 NSCLC
  GI50: 0.306 µM
  TGI: 1.62 µM
HL-60(TB) leukemia
  GI50: 1.15 µM
  TGI: 2.38 µM
K-562 leukemia
  GI50: 0.32 µM
  TGI: 13.9 µM
MOLT-4 leukemia
  GI50: 0.624 µM
  TGI: 1.92 µM
KM12 colon
  TGI: 2.72 µM
NCI-H23 lung
  GI50: 0.173 µM
  TGI: 0.578 µM
IGROV1 ovarian
  GI50: 1.26 µM
  TGI: 6.93 µM
HCT-15 colon
  GI50: 1.93 µM
  TGI: 5.65 µM
HS 578T breast
  GI50: 1.35 µM
  TGI: 2.71 µM
RXF 393 renal
  GI50: 1.2 µM
  TGI: 2.51 µM
U251 glioblastoma
  GI50: 2.5 µM
  TGI: 6.32 µM
CCRF-CEM leukemia
  GI50: 0.445 µM
  TGI: 1.47 µM
CAKI-1 renal
  GI50: 1.51 µM
  TGI: 3.28 µM
OVCAR-5 ovarian
  GI50: 2.35 µM
  TGI: 14.8 µM
T-47D breast
  GI50: 1.38 µM
  TGI: 5.17 µM
OVCAR-8 ovarian
  GI50: 1.95 µM
  TGI: 9.88 µM
HT29 colon
  GI50: 0.659 µM
  TGI: 39 µM
NCI-H322M lung
  GI50: 1.6 µM
  TGI: 6.88 µM
A549 NSCLC
  GI50: 1.7 µM
  TGI: 8.94 µM
HCT-116 colon
  GI50: 0.801 µM
  TGI: 54.9 µM
OVCAR-4 ovarian
  GI50: 3.98 µM
  TGI: 8.26 µM
M14 melanoma
  GI50: 0.349 µM
  TGI: 1.43 µM
SF-268 CNS
  GI50: 0.364 µM
  TGI: 0.962 µM
DU-145 prostate
  GI50: 1.07 µM
  TGI: 61.4 µM
SNB-19 CNS
  GI50: 2.75 µM
  TGI: 11.4 µM
NCI/ADR-RES ovarian
  GI50: 1.78 µM
  TGI: 6.99 µM
BT-549 breast
  GI50: 2.37 µM
  TGI: 4.71 µM
UO-31 renal
  GI50: 2.07 µM
  TGI: 7.07 µM
EKVX NSCLC
  GI50: 1.73 µM
  TGI: 4.38 µM
